The values that follow come from BindingDB's records for doi:10.1016/j.bioorg.2006.01.004 (University of Zagreb, 2006).

The assay has as its target Carboxylic ester hydrolase (Equus caballus, UniProt Q9N1N9). As to the kind of experiment: Inhibition Assay. To be noted: 40 °C. The method, then: Butyrylcholinesterase type IV-S, lyophilized from horse serum (sigma Chemical Co.) was used without further purification. HPLC analyses (Thermo Separation Products, Spectra SYSTEM 2000) were performed on an RP-18 column at 40 C.

“And” between values parts separate entries of the source, which are not always exact repeats. Equal entries are not always repeated.

Sequence of Carboxylic ester hydrolase (Q9N1N9 whole entry): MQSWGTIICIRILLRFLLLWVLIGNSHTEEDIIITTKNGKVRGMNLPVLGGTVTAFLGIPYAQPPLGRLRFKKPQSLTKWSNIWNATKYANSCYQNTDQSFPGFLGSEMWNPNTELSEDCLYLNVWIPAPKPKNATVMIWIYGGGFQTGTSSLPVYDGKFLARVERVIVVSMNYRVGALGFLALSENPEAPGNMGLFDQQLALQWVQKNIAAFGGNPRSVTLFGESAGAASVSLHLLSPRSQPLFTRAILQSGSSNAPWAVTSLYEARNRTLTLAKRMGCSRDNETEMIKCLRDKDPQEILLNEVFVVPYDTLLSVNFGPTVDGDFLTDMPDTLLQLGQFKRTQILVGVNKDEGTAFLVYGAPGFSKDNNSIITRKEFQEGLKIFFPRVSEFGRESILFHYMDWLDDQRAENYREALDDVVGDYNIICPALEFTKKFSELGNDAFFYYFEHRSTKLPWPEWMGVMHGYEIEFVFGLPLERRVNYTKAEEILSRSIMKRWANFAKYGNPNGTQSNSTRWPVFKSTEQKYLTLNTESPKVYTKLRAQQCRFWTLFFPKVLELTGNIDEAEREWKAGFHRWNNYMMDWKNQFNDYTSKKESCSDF

As a reminder, the Ki is a measure of affinity in units of concentration, obtained from inhibition or displacement. For the compound `O=C(NC1C[N+]2(Cc3ccccc3)CCC1CC2)c1ccccc1` [(S)-N-Benzyl-3-benzamidoquinuclidinium bromide, 12], the Ki was 25.9 µM and 3.7 µM.

As for `CCCC(=O)NC1C[N+]2(Cc3ccccc3)CCC1CC2` [(S)-N-Benzyl-3-butanamidoquinuclidinium bromide, 9], the Ki is 160 µM and 242 µM.
